For assay [1], the target named is T1, GST tagged Bcl-xL ΔC25 protein (Homo sapiens, UniProt Q07817).
T1 construct: GST tagged Bcl-xL ΔC25 protein
Put plainly: Alphascreen GST competition assay, Bcl-xL vs biotinylated Bim BH3-26 peptide. The settings on record: competition with biotinylated Bim BH3-26 peptide (5.0 nM), Bcl-xL 0.6 nM, n.b. = not binding in the assay conditions; for IC50: read-out: Bcl-xLΔ25 IC50. On the technique in general: In Alpha technology, singlet oxygen from a donor bead excites a nearby acceptor bead.

Assay [2] concerns the target T2, GST tagged Bclw ΔC29 protein (Homo sapiens, UniProt Q92843).
T2 construct: GST tagged Bclw ΔC29 protein
T2 sequence (Q92843 1-164 limits assumed): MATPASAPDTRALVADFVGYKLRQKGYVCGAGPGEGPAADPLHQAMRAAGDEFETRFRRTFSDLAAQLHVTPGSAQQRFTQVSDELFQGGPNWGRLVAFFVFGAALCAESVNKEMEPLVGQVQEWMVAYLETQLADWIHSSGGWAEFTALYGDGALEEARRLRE
Put plainly: Alphascreen GST competition assay, Bcl-w vs biotinylated Bim BH3-26 peptide. It counts as binding. The note with it: for IC50: read-out: Bcl-wΔ29 IC50.

The target in the next assay is GST tagged Mcl-1 protein (Homo sapiens, UniProt Q07820). Put plainly: Alphascreen GST competition assay, Mcl-1 vs biotinylated Bak BH3 peptide. The settings on record: competition with biotinylated Bak BH3 peptide (4.0 nM), Mcl-1 0.4 nM; n.b. = not binding in the assay conditions.
GST tagged Mcl-1 protein, sequence (Q07820 whole entry): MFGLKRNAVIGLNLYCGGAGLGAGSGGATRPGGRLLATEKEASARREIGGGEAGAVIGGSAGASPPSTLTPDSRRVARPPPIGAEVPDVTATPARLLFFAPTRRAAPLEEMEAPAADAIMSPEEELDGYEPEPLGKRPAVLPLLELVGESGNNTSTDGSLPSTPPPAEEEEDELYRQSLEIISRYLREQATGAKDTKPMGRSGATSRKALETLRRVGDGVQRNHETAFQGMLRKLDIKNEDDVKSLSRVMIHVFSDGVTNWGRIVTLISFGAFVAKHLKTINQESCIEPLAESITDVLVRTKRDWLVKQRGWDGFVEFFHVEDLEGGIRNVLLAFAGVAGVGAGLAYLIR
The mark [3] stands for this setting: competition with biotinylated Bim BH3-26 peptide (3.0 nM), Bcl-w 0.05 nM, n.b. = not binding in the assay conditions.
Where [4] appears, read: footnote a: tested in a separate experiment.

Read-outs that look alike come from different tables or passages of the source.

T1 sequence (Q07817 1-208 limits assumed): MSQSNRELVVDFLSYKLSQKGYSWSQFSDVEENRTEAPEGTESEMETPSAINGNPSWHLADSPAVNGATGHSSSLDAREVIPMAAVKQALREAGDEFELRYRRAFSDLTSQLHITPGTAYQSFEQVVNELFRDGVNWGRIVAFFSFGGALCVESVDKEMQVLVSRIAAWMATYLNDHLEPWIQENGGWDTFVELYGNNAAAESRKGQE

Turning to `O=C(O)[C@H](CSCc1ccccc1)NC(=O)N(Cc1ccc(Cl)c(Cl)c1)C(=O)c1ccc(-c2ccccc2)cc1` [(85)], the “Bcl-xLΔ25 IC50 (μM)” value in assay [1] is “n.b.^b”.

For orientation: IC50 means the concentration that inhibits the measured activity by half. As for `CCCN(C(=O)N[C@@H](CSCCCc1ccccc1)C(=O)O)C(=O)c1cccc(C#Cc2ccccc2)c1` [(95)], the IC50 in assay [1] stood at 73 µM; in assay [2] (setting [3]), 35 µM; on GST tagged Mcl-1 protein it was 94 µM.

Consider `O=C(O)[C@H](CSCc1ccccc1)NC(=O)N(C(=O)c1cccc(-c2ccccc2)c1)C1CCCCC1` [(10)], for which the IC50 in assay [2] (setting [4]) is 26 µM.

As for `CCCN(C(=O)N[C@@H](CSCC(C)C)C(=O)NS(=O)(=O)c1cccc(-c2ccccc2)c1)C(=O)c1cccc(C#Cc2ccccc2)c1` [(155)], in assay [1], the IC50 came out at 53 µM.

On to `CCCN(C(=O)N[C@@H](CSCc1ccccc1)C(=O)O)C(=O)c1cccc(CCc2ccccc2)c1` [(88)], for which the IC50 in assay [1] came out at 51 µM; in assay [2] (setting [3]), 49 µM; at GST tagged Mcl-1 protein, 154 µM.

Take `CCCN(C(=O)N[C@@H](CSCc1ccc(OC)cc1)C(=O)O)C(=O)c1cccc(C#Cc2ccccc2)c1` [(115)]: in assay [1], the IC50 came to 32 µM.

For the compound `O=C(O)[C@H](CSCc1ccccc1)NC(=O)N(CC1CCCCC1)C(=O)c1cccc(-c2ccccc2)c1` [(9)], the IC50 in assay [2] (setting [4]) amounted to 14 µM.

For `CCCN(C(=O)N[C@@H](CSCC(C)C)C(=O)O)C(=O)c1cccc(C#Cc2ccncc2)c1` [(150)], in assay [1], the “Bcl-xLΔ25 IC50 (μM)” value is given as “n.b.^b”.

For the compound `CCCN(C(=O)NCC(=O)O)C(=O)c1cccc(-c2ccccc2)c1` [(71)], in assay [2] (setting [3]), the “Bcl-wΔ29 IC50 (μM)” value is recorded as “n.b.^b”.

For the compound `CCCN(C(=O)N[C@@H](CSCC(C)CC)C(=O)O)C(=O)c1cccc(C#Cc2ccccc2)c1` (stereo partly shown) [(125)], in assay [1], the IC50 was 44 µM.

With `O=C([C@H](CSCc1ccccc1)NC(=O)N(Cc1cccc2ccccc12)C(=O)c1cccc(-c2ccc(F)cc2)c1)N1CCOCC1` [(72)], the “Bcl-wΔ29 IC50 (μM)” value in assay [2] (setting [3]) is given as “n.b.^b”.

With `CCCN(C(=O)N[C@@H](CSCC(C)C)C(=O)O)C(=O)c1cccc(C#Cc2cccc(F)c2)c1` [(140)], the “Mcl-1 IC50 (μM)” value on GST tagged Mcl-1 protein is recorded as “n.b.^b”.

Take `CCCN(C(=O)N[C@@H](CSCc1ccccc1)C(=O)O)C(=O)c1cccc(/C=C/c2ccccc2)c1` [(87)]: the IC50 in assay [1] was 151 µM; in assay [2] (setting [3]) it was 99 µM; at GST tagged Mcl-1 protein it was 161 µM.

Consider `CC(C)CCN(C(=O)N[C@@H](CSCc1ccccc1)C(=O)O)C(=O)c1ccc(-c2ccccc2)cc1` [(42)], for which the IC50 in assay [2] (setting [3]) was 49 µM.

`CCCN(C(=O)N[C@@H](CSCC(C)C)C(=O)O)C(=O)c1cccc(C#Cc2ccccc2OC)c1` [(146)]: the “Mcl-1 IC50 (μM)” value on GST tagged Mcl-1 protein is “n.b.^b”.

As to `CCCN(C(=O)CCCc1ccccc1)C(=O)N[C@@H](CSCc1ccccc1)C(=O)O` [(106)], the values for the IC50 (in assay [1]; in assay [2] (setting [3]); at GST tagged Mcl-1 protein) were 182 µM, 102 µM and 251 µM, respectively.

On to `CCCN(C(=O)N[C@@H](CSCc1ccccc1)C(=O)O)C(=O)c1cccc(C#Cc2ccc(Br)cc2)c1` [(134)], for which the IC50 in assay [1] was found to be 51 µM; on GST tagged Mcl-1 protein it was 181 µM.

Turning to `CCCN(C(=O)N[C@@H](CSCc1ccccc1)C(=O)O)C(=O)c1ccc(/C=C/c2ccccc2)cc1` [(86)], on GST tagged Mcl-1 protein, the “Mcl-1 IC50 (μM)” value was “n.b.^b”.

On to `CCCN(C(=O)N[C@@H](CSC(C)C)C(=O)O)C(=O)c1cccc(C#Cc2ccccc2)c1` [(92)], for which the “Mcl-1 IC50 (μM)” value at GST tagged Mcl-1 protein is listed as “n.b.^b”.

Source of the values: patent publication US7956216B2, “Alpha-helical mimetics” (The Walter and Eliza Hall Institute of Medical Research, priority 2006, dated 2011).
